Assay results taken from PubChem BioAssay (NCI).
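The compound was tested at five concentrations on cells cultured in 96-well plates, with a 48-hour exposure period. TGI denotes the concentration required for complete inhibition of growth.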

How the values were obtained:
Test in all cases: growth of human tumour cells (NCI), 48 h
NCI-H522 lung = test system: NCI-H522 lung
PC-3 prostate = test system: PC-3 prostate
MALME-3M melanoma = test system: MALME-3M melanoma
SK-MEL-5 melanoma = test system: SK-MEL-5 melanoma
OVCAR-4 ovarian = test system: OVCAR-4 ovarian
LOX IMVI melanoma = test system: LOX IMVI melanoma
NCI/ADR-RES ovarian = test system: NCI/ADR-RES ovarian
KM12 colon = test system: KM12 colon
SN12C renal = test system: SN12C renal
SW-620 colon = test system: SW-620 colon
UACC-257 melanoma = test system: UACC-257 melanoma

SMILES	TGI (NCI-H522 lung)	TGI (PC-3 prostate)	TGI (MALME-3M melanoma)	TGI (SK-MEL-5 melanoma)	TGI (OVCAR-4 ovarian)	TGI (LOX IMVI melanoma)	TGI (NCI/ADR-RES ovarian)	TGI (KM12 colon)	TGI (SN12C renal)	TGI (SW-620 colon)	TGI (UACC-257 melanoma)
C[C@H](OC(=O)/C=C/c1ccc(O)c(O)c1)[C@H](C)OC(=O)/C=C/c1ccc(O)c(O)c1	35.1 µM	> 100 µM	31.9 µM	21.5 µM	> 100 µM	22.6 µM	63.1 µM	> 100 µM	34 µM	17.8 µM	29.7 µM
C/C(=N\Nc1nc2ccccc2[nH]1)c1ccc2ccccc2n1	8.85 µM	5.2 µM	7.85 µM	4.5 µM	10.8 µM	10.2 µM	7.63 µM	14.3 µM	7.57 µM	14.6 µM	24.9 µM
Cc1ccc(S(=O)(=O)N/N=C2/C3CC4CCC2C4C3)cc1 (stereo unspecified)	> 100 µM	> 100 µM	> 100 µM	> 100 µM	> 100 µM	> 100 µM	> 100 µM	> 100 µM	> 100 µM	> 100 µM	> 100 µM
C[C@@H](Br)[C@@H]1CC[C@H]2c3[nH]c4ccccc4c3CCN2C1	29.5 µM	75.4 µM	40.3 µM	29.4 µM	> 100 µM	32.9 µM	47.3 µM	28.5 µM	–	70.8 µM	> 100 µM
CC(C)[Si](CC1=CCCCC12C(=O)N(COCC[Si](C)(C)C)c1ccccc12)(C(C)C)C(C)C (stereo unspecified)	> 100 µM	> 100 µM	> 100 µM	> 100 µM	> 100 µM	> 100 µM	> 100 µM	> 100 µM	–	> 100 µM	> 100 µM
c1ccc2c[n+](Cc3ccnc4ccccc34)ccc2c1	> 100 µM	> 100 µM	> 100 µM	> 100 µM	> 100 µM	> 100 µM	> 100 µM	> 100 µM	> 100 µM	> 100 µM	> 100 µM
CCOC1=NC(C(F)(F)F)(C(F)(F)F)N=C(/N=C(/N)N(C)C(C(C)C)P(=O)(OC(C)C)OC(C)C)O1 (stereo unspecified)	93.3 µM	> 100 µM	> 100 µM	> 100 µM	–	> 100 µM	> 100 µM	> 100 µM	> 100 µM	> 100 µM	> 100 µM
ClC1(Cl)C2CCOC21n1cnc2ccccc21 (stereo unspecified)	> 100 µM	> 100 µM	> 100 µM	> 100 µM	> 100 µM	> 100 µM	> 100 µM	> 100 µM	> 100 µM	> 100 µM	–
Cc1cccc2c1CC1(Cc3c(C)cccc3C1=O)C2=O	> 100 µM	> 100 µM	> 100 µM	> 100 µM	> 100 µM	> 100 µM	> 100 µM	–	–	> 100 µM	> 100 µM
COc1cc(CNC(=O)CCCCCCCCCCSC#N)ccc1O	27.8 µM	27.5 µM	> 100 µM	19.4 µM	57.6 µM	33 µM	59.7 µM	19.3 µM	–	36.4 µM	41.1 µM
COc1cc2oc(=O)cc(C)c2c(OC)c1OC	–	> 100 µM	> 100 µM	> 100 µM	> 100 µM	> 100 µM	> 100 µM	> 100 µM	> 100 µM	> 100 µM	> 100 µM
COc1ccccc1N1C(=O)/C(=C\c2ccccc2)SC1c1cc(OC)c(OC)c(OC)c1 (stereo unspecified)	74.3 µM	68.9 µM	> 100 µM	> 100 µM	> 100 µM	50.3 µM	> 100 µM	> 100 µM	87.9 µM	–	> 100 µM
COc1ccc(C2=Nn3c(C)nnc3S/C2=C\c2ccc(-c3ccc([N+](=O)[O-])cc3)o2)cc1	23.8 µM	59.5 µM	86.3 µM	34.4 µM	> 100 µM	30.3 µM	23.2 µM	40.1 µM	33.6 µM	–	54.7 µM
O=C(CN1CCOCC1)c1ccc2c(c1)oc(=O)n2CCN1CCCCC1	–	> 100 µM	> 100 µM	> 100 µM	–	> 100 µM	> 100 µM	> 100 µM	> 100 µM	> 100 µM	> 100 µM
C[C@H](N)C(=O)Nc1ccc(-c2nc3ccccc3s2)cc1Cl	46 µM	27.3 µM	41.4 µM	29.9 µM	–	> 100 µM	> 100 µM	33.6 µM	30 µM	29.4 µM	34.4 µM
O=C(O)Cc1ccc(-n2nnc3c(=O)[nH][nH]c(=O)c32)cc1	–	> 100 µM	> 100 µM	> 100 µM	> 100 µM	> 100 µM	> 100 µM	> 100 µM	> 100 µM	–	> 100 µM
Cc1c(OCc2cccc3ccccc23)ccc2c(=O)cc(S)oc12	89.4 µM	> 100 µM	–	> 100 µM	> 100 µM	47.5 µM	> 100 µM	> 100 µM	> 100 µM	> 100 µM	> 100 µM
COc1ccc(-c2cc(-c3ccncc3)nc(N)c2-c2ccc(F)cc2)cc1	27.1 µM	> 100 µM	> 100 µM	> 100 µM	> 100 µM	> 100 µM	> 100 µM	> 100 µM	–	> 100 µM	> 100 µM
COc1ccc(/C=C/C(=O)N[C@@H]2C(=O)N3[C@@H]2SC(C)(C)[C@@H]3C(=O)O)cc1OC	> 100 µM	> 100 µM	–	> 100 µM	> 100 µM	> 100 µM	> 100 µM	> 100 µM	> 100 µM	> 100 µM	> 100 µM
CC(C)(C)OC(=O)/C=C/[C@@H](CCC(=O)/C=C/[C@H](/C=C\CCCC(=O)O)NC1(c2ccccc2)c2ccccc2-c2ccccc21)O[Si](C)(C)C(C)(C)C	34.6 µM	36.2 µM	–	36.8 µM	53.9 µM	27.6 µM	32.6 µM	43.5 µM	32.4 µM	81.6 µM	34.2 µM
CSc1cc(Cl)c(C)cc1S(=O)(=O)NC(=O)NNc1cnc2ccccc2n1	> 100 µM	> 100 µM	> 100 µM	> 100 µM	> 100 µM	> 100 µM	> 100 µM	> 100 µM	> 100 µM	> 100 µM	–
